From ChEMBL document CHEMBL3351422, “Discovery of N-substituted 7-azaindoline derivatives as potent, orally available M1 and M4 muscarinic acetylcholine receptors selective agonists” (Bioorg Med Chem Lett, 2014)

Legend:
[1] = Blood brain barrier penetration in rat at 0.25 mg/kg, iv and 2.5 mg/kg, po; assay type: ADME, organism-based
[2] = Clearance in monkey at 0.25 mg/kg, iv and 2.5 mg/kg, po; assay type: ADME, organism-based, Macaca mulatta; settings: rhesus monkey, in vivo
[3] = Volume of distribution at steady state in monkey at 0.25 mg/kg, iv and 2.5 mg/kg, po; assay type: ADME, organism-based, Macaca mulatta; settings: rhesus monkey, in vivo, read-out: Vdss
[4] = biological target: Phosphodiesterase 4 (Homo sapiens) (UniProt P27815+Q08499+Q07343+Q08493); test: Inhibition of human PDE4 at 3 uM by radioligand binding assay; assay type: protein assay
[5] = biological target: Adenosine receptor A2a (Homo sapiens) (UniProt P29274); test: Inhibition of human adenosine A2A receptor at 3 uM by radioligand binding assay
[6] = biological target: Adenosine receptor A3 (Homo sapiens) (UniProt P0DMS8); test: Inhibition of human adenosine A3 receptor at 3 uM by radioligand binding assay
[7] = biological target: Alpha-1B adrenergic receptor (Rattus norvegicus) (UniProt P15823); test: Inhibition of rat alpha1B adrenergic receptor at 3 uM by radioligand binding assay
[8] = biological target: Endothelin receptor type B (Homo sapiens) (UniProt P24530); test: Inhibition of human ETB receptor at 3 uM by radioligand binding assay
Rattus norvegicus [9] = species on record: Rattus norvegicus; test: Inhibition of rat GABAA central type receptor flunitrazepam binding site at 3 uM by radioligand binding assay
Rattus norvegicus [10] = species on record: Rattus norvegicus; test: Inhibition of rat GABAA central type receptor muscimol binding site at 3 uM by radioligand binding assay
[11] = biological target: Gamma-aminobutyric acid type B receptor subunit 1 (Homo sapiens) (UniProt Q9UBS5); test: Inhibition of human GABAB1A receptor at 3 uM by radioligand binding assay
[12] = biological target: Glutamate NMDA receptor (Rattus norvegicus) (UniProt P35439+Q00959+Q00960+Q00961+Q62645+Q8VHN2+Q9R1M7); test: Inhibition of rat NMDA receptor agonist binding site at 3 uM by radioligand binding assay; assay type: protein-complex assay
[13] = biological target: Histamine H2 receptor (Homo sapiens) (UniProt P25021); test: Inhibition of human histamine H2 receptor at 3 uM by radioligand binding assay
[14] = biological target: Neuronal acetylcholine receptor; alpha4/beta2 (Rattus norvegicus) (UniProt P09483+P12390); test: Displacement of [3H]cytisine from rat alpha4beta2 nAChR; assay type: protein-complex assay; settings: concentration not given here
[15] = biological target: Kappa-type opioid receptor (Homo sapiens) (UniProt P41145); test: Inhibition of human kappa opioid receptor at 3 uM by radioligand binding assay
hERG (KCNH2) = hERG (KCNH2) (Homo sapiens, UniProt Q12809); test: Inhibition of human ERG channel at 3 uM by radioligand binding assay
Oryctolagus cuniculus = species on record: Oryctolagus cuniculus; test: Inhibition of rabbit purinergic P2X receptor at 3 uM by radioligand binding assay
Rattus norvegicus [16] = species on record: Rattus norvegicus; test: Inhibition of rat purinergic P2Y receptor at 3 uM by radioligand binding assay
Rattus norvegicus [17] = species on record: Rattus norvegicus; test: Inhibition of rat Rolipram binding site at 3 uM by radioligand binding assay
[18] = biological target: Substance-P receptor (Homo sapiens) (UniProt P25103); test: Inhibition of human NK1 receptor at 3 uM by radioligand binding assay
[19] = biological target: T1, Muscarinic acetylcholine receptor M2 (Homo sapiens) (UniProt P08172); test: Agonist activity at muscarinic M2 receptor (unknown origin) at 0.3 uM by calcium mobilization assay; assay type: functional
T1 sequence (whole entry): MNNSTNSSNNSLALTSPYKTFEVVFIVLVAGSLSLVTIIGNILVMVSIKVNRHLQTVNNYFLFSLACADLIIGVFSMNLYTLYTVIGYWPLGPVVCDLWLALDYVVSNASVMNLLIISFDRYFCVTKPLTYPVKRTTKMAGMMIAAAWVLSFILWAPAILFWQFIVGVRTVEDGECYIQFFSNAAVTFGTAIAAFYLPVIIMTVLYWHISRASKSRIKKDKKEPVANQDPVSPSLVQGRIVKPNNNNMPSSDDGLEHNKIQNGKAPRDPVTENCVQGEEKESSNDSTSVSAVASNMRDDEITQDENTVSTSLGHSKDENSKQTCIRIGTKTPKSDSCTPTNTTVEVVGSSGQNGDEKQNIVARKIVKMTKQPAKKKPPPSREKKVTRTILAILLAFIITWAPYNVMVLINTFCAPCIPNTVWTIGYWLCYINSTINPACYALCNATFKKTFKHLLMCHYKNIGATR

[20] = biological target: T2, Muscarinic acetylcholine receptor M4 (Homo sapiens) (UniProt P08173); test: Agonist activity at muscarinic M4 receptor (unknown origin) at 0.3 uM by calcium mobilization assay; assay type: functional
T2 sequence (whole entry): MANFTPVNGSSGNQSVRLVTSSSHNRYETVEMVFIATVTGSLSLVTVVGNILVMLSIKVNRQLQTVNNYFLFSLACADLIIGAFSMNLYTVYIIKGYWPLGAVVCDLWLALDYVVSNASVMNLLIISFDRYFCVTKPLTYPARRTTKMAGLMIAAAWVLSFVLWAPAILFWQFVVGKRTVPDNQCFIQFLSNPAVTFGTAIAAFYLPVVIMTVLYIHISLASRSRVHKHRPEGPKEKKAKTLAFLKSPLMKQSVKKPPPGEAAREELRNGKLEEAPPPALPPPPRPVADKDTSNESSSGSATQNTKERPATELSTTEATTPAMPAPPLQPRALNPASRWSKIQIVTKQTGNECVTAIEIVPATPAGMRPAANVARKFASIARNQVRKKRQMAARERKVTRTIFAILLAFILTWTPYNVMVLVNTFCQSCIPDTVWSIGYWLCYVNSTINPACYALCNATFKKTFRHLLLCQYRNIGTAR

[21] = biological target: T3, Muscarinic acetylcholine receptor M5 (Homo sapiens) (UniProt P08912); test: Agonist activity at muscarinic M5 receptor (unknown origin) at 10 uM by calcium mobilization assay; assay type: functional
T3 sequence (whole entry): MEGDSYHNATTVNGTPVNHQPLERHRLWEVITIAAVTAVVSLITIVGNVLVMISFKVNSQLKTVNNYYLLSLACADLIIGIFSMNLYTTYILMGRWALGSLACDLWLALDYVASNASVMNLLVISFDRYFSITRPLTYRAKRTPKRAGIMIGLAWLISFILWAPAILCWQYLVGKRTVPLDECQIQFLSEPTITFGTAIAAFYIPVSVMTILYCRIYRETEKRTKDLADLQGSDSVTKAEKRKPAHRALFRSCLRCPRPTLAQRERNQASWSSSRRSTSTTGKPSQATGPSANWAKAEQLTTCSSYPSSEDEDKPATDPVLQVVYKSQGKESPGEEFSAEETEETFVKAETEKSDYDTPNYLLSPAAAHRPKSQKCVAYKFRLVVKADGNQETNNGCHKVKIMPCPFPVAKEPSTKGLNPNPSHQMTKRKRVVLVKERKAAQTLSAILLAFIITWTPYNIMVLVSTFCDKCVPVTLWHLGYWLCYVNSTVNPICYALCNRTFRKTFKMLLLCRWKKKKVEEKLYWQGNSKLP

[22] = Oral bioavailability in rat at 2.5 mg/kg; assay type: ADME, organism-based; settings: in vivo
[23] = Clearance in rat at 0.25 mg/kg, iv and 2.5 mg/kg, po; assay type: ADME, organism-based; settings: in vivo

Chain of Adenosine receptor A2a (Homo sapiens) (P29274 whole entry): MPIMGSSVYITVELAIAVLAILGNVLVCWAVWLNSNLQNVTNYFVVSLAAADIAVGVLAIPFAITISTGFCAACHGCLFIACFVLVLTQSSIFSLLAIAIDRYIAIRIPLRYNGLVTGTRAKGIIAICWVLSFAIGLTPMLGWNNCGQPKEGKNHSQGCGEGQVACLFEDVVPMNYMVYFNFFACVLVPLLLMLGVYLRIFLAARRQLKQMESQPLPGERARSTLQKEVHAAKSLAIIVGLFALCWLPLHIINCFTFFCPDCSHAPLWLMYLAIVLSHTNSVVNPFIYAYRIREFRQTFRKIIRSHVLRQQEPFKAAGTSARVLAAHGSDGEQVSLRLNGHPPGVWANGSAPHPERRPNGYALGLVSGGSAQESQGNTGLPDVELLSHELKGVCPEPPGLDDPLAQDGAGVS
Chain of Kappa-type opioid receptor (Homo sapiens) (P41145 whole entry): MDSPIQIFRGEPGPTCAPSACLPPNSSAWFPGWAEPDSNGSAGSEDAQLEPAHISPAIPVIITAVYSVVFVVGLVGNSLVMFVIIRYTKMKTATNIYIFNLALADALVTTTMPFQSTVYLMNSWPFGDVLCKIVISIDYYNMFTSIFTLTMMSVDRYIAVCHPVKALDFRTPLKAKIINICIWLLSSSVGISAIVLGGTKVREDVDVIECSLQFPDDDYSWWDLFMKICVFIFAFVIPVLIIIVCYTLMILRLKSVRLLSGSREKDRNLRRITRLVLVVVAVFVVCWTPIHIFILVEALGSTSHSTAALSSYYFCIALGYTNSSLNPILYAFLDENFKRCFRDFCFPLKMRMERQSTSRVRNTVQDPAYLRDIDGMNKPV
Chain of Endothelin receptor type B (Homo sapiens) (P24530 whole entry): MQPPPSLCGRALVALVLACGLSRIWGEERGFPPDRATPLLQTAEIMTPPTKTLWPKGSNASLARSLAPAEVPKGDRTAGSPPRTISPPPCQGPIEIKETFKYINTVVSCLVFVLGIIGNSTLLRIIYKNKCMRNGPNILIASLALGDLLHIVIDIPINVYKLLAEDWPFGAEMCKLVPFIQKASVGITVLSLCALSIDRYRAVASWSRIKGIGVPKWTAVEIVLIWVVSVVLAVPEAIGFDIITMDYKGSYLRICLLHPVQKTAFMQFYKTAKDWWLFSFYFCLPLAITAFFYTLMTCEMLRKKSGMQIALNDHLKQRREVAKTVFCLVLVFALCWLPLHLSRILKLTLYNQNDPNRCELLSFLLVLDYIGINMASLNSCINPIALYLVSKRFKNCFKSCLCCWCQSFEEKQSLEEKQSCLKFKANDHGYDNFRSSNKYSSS
Chain of Adenosine receptor A3 (Homo sapiens) (P0DMS8 whole entry): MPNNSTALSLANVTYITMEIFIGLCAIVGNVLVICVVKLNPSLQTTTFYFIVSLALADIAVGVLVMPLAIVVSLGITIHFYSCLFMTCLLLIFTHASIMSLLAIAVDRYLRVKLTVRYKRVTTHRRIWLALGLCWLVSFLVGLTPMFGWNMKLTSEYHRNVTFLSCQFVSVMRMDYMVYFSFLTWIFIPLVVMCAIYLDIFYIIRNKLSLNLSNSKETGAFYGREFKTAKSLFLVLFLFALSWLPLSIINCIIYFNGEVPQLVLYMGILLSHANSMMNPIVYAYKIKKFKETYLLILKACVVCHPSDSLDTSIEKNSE
Chain of hERG (KCNH2) (Q12809 whole entry): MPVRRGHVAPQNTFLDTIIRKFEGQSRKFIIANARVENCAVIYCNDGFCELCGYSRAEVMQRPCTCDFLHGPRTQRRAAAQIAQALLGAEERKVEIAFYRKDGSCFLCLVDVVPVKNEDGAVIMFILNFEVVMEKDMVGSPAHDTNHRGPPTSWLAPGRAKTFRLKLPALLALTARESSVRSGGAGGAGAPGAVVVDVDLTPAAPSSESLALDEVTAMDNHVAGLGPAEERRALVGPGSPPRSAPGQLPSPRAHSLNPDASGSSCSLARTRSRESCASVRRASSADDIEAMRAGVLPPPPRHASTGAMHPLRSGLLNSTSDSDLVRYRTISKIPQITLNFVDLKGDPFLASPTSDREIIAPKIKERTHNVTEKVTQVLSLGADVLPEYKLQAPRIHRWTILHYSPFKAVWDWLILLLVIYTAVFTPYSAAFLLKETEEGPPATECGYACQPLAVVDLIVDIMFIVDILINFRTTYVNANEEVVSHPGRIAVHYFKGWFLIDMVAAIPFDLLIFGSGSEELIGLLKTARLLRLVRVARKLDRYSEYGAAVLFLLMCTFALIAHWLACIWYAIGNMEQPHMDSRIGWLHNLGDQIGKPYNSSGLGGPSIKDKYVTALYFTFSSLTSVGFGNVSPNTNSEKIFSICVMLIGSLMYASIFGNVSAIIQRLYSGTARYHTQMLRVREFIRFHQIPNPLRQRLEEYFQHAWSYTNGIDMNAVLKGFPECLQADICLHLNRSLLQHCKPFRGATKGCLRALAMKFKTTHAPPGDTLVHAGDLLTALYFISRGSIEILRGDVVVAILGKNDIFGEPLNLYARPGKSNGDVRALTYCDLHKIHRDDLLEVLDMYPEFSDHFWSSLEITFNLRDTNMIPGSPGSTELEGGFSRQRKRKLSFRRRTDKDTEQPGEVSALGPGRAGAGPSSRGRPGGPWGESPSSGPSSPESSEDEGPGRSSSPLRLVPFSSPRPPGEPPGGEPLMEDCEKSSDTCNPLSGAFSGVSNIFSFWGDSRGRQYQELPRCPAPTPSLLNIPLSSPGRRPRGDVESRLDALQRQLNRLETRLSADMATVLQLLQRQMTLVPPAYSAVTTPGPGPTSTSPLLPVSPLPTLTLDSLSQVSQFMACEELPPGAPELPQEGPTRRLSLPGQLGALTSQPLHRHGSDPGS
Chain of Gamma-aminobutyric acid type B receptor subunit 1 (Homo sapiens) (Q9UBS5 whole entry): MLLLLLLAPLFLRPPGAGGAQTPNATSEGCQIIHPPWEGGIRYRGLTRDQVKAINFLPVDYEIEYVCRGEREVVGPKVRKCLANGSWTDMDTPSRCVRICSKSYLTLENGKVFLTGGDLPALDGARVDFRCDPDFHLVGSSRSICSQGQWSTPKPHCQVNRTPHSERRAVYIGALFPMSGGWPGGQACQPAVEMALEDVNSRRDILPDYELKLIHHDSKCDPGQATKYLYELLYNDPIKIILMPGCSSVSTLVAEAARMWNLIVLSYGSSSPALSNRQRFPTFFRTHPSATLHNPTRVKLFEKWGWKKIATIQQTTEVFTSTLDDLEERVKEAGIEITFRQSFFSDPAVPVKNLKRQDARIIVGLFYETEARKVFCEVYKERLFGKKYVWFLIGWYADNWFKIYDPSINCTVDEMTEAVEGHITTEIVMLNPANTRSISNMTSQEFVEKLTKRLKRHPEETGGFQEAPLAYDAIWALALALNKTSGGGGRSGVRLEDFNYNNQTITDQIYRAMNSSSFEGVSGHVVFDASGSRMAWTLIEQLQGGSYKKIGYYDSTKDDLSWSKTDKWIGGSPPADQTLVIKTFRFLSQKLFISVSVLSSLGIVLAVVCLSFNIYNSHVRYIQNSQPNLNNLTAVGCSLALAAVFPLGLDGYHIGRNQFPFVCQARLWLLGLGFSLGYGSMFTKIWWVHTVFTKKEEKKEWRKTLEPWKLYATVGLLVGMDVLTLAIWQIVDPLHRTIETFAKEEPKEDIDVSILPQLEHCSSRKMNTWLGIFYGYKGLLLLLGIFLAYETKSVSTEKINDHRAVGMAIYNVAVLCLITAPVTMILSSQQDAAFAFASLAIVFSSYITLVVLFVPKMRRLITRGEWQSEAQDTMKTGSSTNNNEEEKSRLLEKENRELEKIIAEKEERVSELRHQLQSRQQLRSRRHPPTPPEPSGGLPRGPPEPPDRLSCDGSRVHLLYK
Chain of Substance-P receptor (Homo sapiens) (P25103 whole entry): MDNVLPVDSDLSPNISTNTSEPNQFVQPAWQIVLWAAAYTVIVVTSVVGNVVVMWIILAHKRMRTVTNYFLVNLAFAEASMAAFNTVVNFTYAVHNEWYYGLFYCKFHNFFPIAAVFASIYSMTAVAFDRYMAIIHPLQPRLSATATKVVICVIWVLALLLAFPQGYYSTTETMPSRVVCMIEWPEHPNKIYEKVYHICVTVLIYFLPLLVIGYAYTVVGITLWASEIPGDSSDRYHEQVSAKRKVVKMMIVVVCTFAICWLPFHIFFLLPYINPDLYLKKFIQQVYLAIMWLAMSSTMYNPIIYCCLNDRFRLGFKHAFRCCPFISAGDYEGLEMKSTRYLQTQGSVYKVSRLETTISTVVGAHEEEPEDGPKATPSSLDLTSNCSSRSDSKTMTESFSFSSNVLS
Chain of Alpha-1B adrenergic receptor (Rattus norvegicus) (P15823 whole entry): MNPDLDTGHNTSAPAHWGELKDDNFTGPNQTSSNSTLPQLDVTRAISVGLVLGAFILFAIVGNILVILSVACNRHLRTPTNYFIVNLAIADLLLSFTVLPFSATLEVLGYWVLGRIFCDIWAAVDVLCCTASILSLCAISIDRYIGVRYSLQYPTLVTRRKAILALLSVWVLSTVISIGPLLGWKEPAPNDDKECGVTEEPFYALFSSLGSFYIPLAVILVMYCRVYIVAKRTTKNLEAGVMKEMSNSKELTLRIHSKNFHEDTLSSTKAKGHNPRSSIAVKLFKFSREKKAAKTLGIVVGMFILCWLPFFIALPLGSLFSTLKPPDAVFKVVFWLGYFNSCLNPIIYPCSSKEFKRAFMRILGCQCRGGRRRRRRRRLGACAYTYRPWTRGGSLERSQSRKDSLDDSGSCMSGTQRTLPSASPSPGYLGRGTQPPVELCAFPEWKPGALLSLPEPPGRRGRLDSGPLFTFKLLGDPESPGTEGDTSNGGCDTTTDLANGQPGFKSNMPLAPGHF
Chain of Histamine H2 receptor (Homo sapiens) (P25021 whole entry): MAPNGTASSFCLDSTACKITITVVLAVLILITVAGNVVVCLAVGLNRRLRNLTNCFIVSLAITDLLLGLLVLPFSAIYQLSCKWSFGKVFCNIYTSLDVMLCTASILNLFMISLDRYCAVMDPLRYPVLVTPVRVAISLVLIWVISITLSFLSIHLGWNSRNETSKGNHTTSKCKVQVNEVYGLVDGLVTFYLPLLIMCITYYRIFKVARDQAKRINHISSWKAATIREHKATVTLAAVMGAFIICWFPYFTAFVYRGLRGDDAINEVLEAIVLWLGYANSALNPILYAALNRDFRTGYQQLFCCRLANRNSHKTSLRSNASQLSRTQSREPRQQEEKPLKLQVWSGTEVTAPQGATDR

Compound: CCOC(=O)N1CCC(CN2CCC3(CC2)CN(C(=O)N(C)C)c2ncccc23)CC1.O=C(O)/C=C/C(=O)O
- Kp [1]: 0.7
- clearance [2]: 16.5 mL/min/kg
- Vd [3]: 2.3 L/kg
- inhibition [4]: -5%
- inhibition [5]: 7%
- inhibition [6]: -8%
- inhibition [7]: 9%
- inhibition [8]: -1%
- inhibition (Rattus norvegicus [9]): -5%
- inhibition (Rattus norvegicus [10]): 2%
- inhibition [11]: 2%
- inhibition [12]: 4%
- inhibition [13]: 4%
- inhibition [14]: 11%
- inhibition [15]: 7%
- inhibition at 3 µM (hERG (KCNH2)): 0%
- inhibition (Oryctolagus cuniculus): 3%
- inhibition (Rattus norvegicus [16]): 9%
- inhibition (Rattus norvegicus [17]): 16%
- inhibition [18]: 2%
- Activity [19]: 10%
- Activity [20]: 118%
- Activity [21]: 11%
- bioavailability [22]: 51.1%
- clearance [23]: 28.4 mL/min/kg
